Results from ChEMBL document CHEMBL6134861 (J Med Chem, 2025).
Calls of active or inactive are those of the source. No cut-off for these calls is given here. Where a SMILES comes first, the peptide text is derived from it. Bridges are numbered along the chain shown (N, C = ends). [ ]: non-standard residue; d: D form. ξ: configuration not given here. ξD = NC(CC(=O)O)C(=O)O

Experiments:
Format in all cases: cell-based
[1] = system: Oocyte; assay: Inhibition of human alpha2/beta2 nAChR expressed in Xenopus laevis oocytes at 10 uM
[2] = biological target: Neuronal acetylcholine receptor; alpha2/beta4 (Homo sapiens) (UniProt P30926+Q15822); assay: Inhibition of human alpha2/beta4 nAChR expressed in Xenopus laevis oocytes at 10 uM; conditions: Oocyte
[3] = biological target: Neuronal acetylcholine receptor; alpha3/beta4 (Homo sapiens) (UniProt P30926+P32297); assay: Inhibition of human alpha3/beta4 nAChR expressed in Xenopus laevis oocytes at 10 uM; conditions: Oocyte
[4] = biological target: Neuronal acetylcholine receptor; alpha3/beta2 (Homo sapiens) (UniProt P17787+P32297); assay: Inhibition of human alpha3/beta2 nAChR expressed in Xenopus laevis oocytes at 10 uM; conditions: Oocyte
[5] = biological target: Neuronal acetylcholine receptor; alpha4/beta4 (Homo sapiens) (UniProt P30926+P43681); assay: Inhibition of human alpha4/beta4 nAChR expressed in Xenopus laevis oocytes at 10 uM; conditions: Oocyte
[6] = biological target: Neuronal acetylcholine receptor; alpha4/beta2 (Homo sapiens) (UniProt P17787+P43681); assay: Inhibition of human alpha4/beta2 nAChR expressed in Xenopus laevis oocytes at 10 uM; conditions: Oocyte
[7] = biological target: Nicotinic acetylcholine receptor alpha6/alpha3/beta4 (Homo sapiens) (UniProt P30926+P32297+Q15825); assay: Inhibition of human alpha6/alpha3/beta4 nAChR expressed in Xenopus laevis oocytes at 10 uM; conditions: Oocyte
[8] = system: Oocyte; assay: Inhibition of human alpha6/alpha3/beta2/beta3 nAChR expressed in Xenopus laevis oocytes at 10 uM
[9] = biological target: Neuronal acetylcholine receptor; alpha9/alpha10 (Homo sapiens) (UniProt Q9UGM1+Q9GZZ6); assay: Inhibition of human alpha9/alpha10 nAChR expressed in Xenopus laevis oocytes at 10 uM; conditions: Oocyte
[10] = biological target: Neuronal acetylcholine receptor subunit alpha-7 (Homo sapiens) (UniProt P36544); assay: Inhibition of human alpha7 nAChR expressed in Xenopus laevis oocytes at 10 uM; conditions: Oocyte
[11] = biological target: Neuronal acetylcholine receptor subunit alpha-7 (Rattus norvegicus) (UniProt Q05941); assay: Inhibition of rat alpha7 nAChR expressed in Xenopus laevis oocytes assessed as inhibition of acetylcholine-induced current at 100 nM preincubated with compound for 1 hr followed by compound washout and measured for 20 mins by two electrode voltage-clamp assay; conditions: Oocyte
[12] = biological target: Neuronal acetylcholine receptor subunit alpha-7 (Rattus norvegicus) (UniProt Q05941); assay: Inhibition of rat alpha7 nAChR expressed in Xenopus laevis oocytes assessed as inhibition of acetylcholine-induced current at 10 uM by two electrode voltage-clamp assay; conditions: Oocyte
[13] = biological target: Neuronal acetylcholine receptor; alpha3/beta2 (Rattus norvegicus) (UniProt P04757+P12390); assay: Inhibition of rat alpha3/beta2 nAChR expressed in Xenopus laevis oocytes assessed as inhibition of acetylcholine-induced current at 10 uM by two electrode voltage-clamp assay; conditions: Oocyte
[14] = system: Oocyte; assay: Inhibition of rat alpha6/alpha3/beta2/beta3 nAChR expressed in Xenopus laevis oocytes assessed as inhibition of acetylcholine-induced current at 10 uM by two electrode voltage-clamp assay
[15] = biological target: Neuronal acetylcholine receptor; alpha3/beta4 (Rattus norvegicus) (UniProt P04757+P12392); assay: Inhibition of rat alpha3/beta4 nAChR expressed in Xenopus laevis oocytes assessed as inhibition of acetylcholine-induced current at 10 uM by two electrode voltage-clamp assay; conditions: Oocyte
[16] = biological target: Nicotinic acetylcholine receptor alpha6/alpha3/beta4 (Rattus norvegicus) (UniProt P04757+P12392+P43143); assay: Inhibition of rat alpha6/alpha3/beta4 nAChR expressed in Xenopus laevis oocytes assessed as inhibition of acetylcholine-induced current at 10 uM by two electrode voltage-clamp assay; conditions: Oocyte
[17] = biological target: Neuronal acetylcholine receptor; alpha2/beta2 (Rattus norvegicus) (UniProt P12389+P12390); assay: Inhibition of rat alpha2/beta2 nAChR expressed in Xenopus laevis oocytes assessed as inhibition of acetylcholine-induced current at 10 uM by two electrode voltage-clamp assay; conditions: Oocyte
[18] = system: Oocyte; assay: Inhibition of rat alpha2/beta4 nAChR expressed in Xenopus laevis oocytes assessed as inhibition of acetylcholine-induced current at 10 uM by two electrode voltage-clamp assay
[19] = biological target: T1, Neuronal acetylcholine receptor; alpha4/beta2 (Rattus norvegicus) (UniProt P09483+P12390); assay: Inhibition of rat alpha4/beta2 nAChR expressed in Xenopus laevis oocytes assessed as inhibition of acetylcholine-induced current at 10 uM by two electrode voltage-clamp assay; conditions: Oocyte
[20] = biological target: T1, Neuronal acetylcholine receptor; alpha4/beta2 (Rattus norvegicus); assay: Inhibition of rat alpha4/beta4 nAChR expressed in Xenopus laevis oocytes assessed as inhibition of acetylcholine-induced current at 10 uM by two electrode voltage-clamp assay; conditions: Oocyte
[21] = biological target: Nicotinic acetylcholine receptor alpha9/alpha10 (Rattus norvegicus) (UniProt P43144+Q9JLB5); assay: Inhibition of rat alpha9/alpha10 nAChR expressed in Xenopus laevis oocytes assessed as inhibition of acetylcholine-induced current at 10 uM by two electrode voltage-clamp assay; conditions: Oocyte
[22] = system: Oocyte; assay: Inhibition of mouse alpha1/beta1/delta/epsilon nAChR expressed in Xenopus laevis oocytes assessed as inhibition of acetylcholine-induced current at 10 uM by two electrode voltage-clamp assay
[23] = Inhibition of rat alpha6/alpha3/beta2/beta3 nAChR expressed in Xenopus laevis oocytes assessed as inhibition of acetylcholine-induced current by two electrode voltage-clamp assay; conditions: Oocyte
[24] = Inhibition of rat alpha2/beta4 nAChR expressed in Xenopus laevis oocytes assessed as inhibition of acetylcholine-induced current by two electrode voltage-clamp assay; conditions: Oocyte
[25] = Inhibition of mouse alpha1/beta1/delta/epsilon nAChR expressed in Xenopus laevis oocytes assessed as inhibition of acetylcholine-induced current by two electrode voltage-clamp assay; conditions: Oocyte

Neuronal acetylcholine receptor subunit alpha-7 (Rattus norvegicus), sequence (Q05941 whole entry): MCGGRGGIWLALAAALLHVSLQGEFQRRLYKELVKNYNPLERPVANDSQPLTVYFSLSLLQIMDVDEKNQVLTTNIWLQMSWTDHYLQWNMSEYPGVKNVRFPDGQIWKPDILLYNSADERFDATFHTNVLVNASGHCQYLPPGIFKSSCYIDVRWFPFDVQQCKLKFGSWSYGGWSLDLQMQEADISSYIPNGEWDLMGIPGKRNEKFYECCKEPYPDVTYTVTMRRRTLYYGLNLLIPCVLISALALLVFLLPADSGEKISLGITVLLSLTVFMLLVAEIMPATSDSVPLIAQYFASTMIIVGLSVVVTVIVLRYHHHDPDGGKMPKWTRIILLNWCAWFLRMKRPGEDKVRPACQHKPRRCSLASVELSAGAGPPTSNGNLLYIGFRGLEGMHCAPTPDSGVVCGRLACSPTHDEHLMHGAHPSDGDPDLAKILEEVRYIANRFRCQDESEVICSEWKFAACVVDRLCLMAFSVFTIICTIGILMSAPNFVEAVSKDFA
Neuronal acetylcholine receptor subunit alpha-7 (Homo sapiens), sequence (P36544 whole entry): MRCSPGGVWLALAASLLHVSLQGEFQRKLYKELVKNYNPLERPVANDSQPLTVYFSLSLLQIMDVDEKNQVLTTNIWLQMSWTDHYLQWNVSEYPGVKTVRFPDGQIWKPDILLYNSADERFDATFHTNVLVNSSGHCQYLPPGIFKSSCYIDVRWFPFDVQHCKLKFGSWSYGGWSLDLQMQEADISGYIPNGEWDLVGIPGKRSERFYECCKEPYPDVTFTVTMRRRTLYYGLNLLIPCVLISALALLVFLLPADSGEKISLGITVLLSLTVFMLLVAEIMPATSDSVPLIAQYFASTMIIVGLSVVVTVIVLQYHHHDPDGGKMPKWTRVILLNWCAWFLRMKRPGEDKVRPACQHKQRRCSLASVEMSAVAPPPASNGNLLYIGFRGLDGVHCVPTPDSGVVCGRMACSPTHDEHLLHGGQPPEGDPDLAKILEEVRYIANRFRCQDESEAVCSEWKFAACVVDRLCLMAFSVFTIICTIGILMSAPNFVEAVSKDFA

In the case of `CC[C@H](C)[C@@H]1NC(=O)[C@H](CC(=O)O)NC(=O)[C@@H]2CCCN2C(=O)[C@H](CC(N)=O)NC(=O)[C@H](CCC(N)=O)NC(=O)[C@H](CC(C)C)NC(=O)[C@H]([C@@H](C)CC)NC(=O)[C@@H]2CSSC[C@H](NC(=O)[C@@H](N)CC(=O)O)C(=O)N[C@@H](CSSC[C@@H](C(N)=O)NC1=O)C(=O)N[C@@H](CO)C(=O)N[C@@H](CCC(=O)O)C(=O)N1CCC[C@H]1C(=O)N1CCC[C@H]1C(=O)N2` (H-DCCSEPPCILQNPDIC-NH2; disulfide 2-8, 3-16), the inhibition [1] is reported as “inactive”, the inhibition [2] is reported as “inactive” and the inhibition [3] is reported as “inactive”. The inhibition [4] was “inactive”, the inhibition [5] was “inactive” and the inhibition [6] was “inactive”. For the same compound, the inhibition [7] was “inactive”, the inhibition [8] was “inactive” and the inhibition [9] was “inactive”. For the same compound, the inhibition [10] was “inactive”, the inhibition [11] was “inactive” and the inhibition [12] was “inactive”. The inhibition [13] was “inactive”, the inhibition [14] was “inactive” and the inhibition [15] was “inactive”. For the same compound, the inhibition [16] was “inactive”, the inhibition [17] was “inactive” and the inhibition [18] was “inactive”. The inhibition [19] was “inactive”, the inhibition [20] was “inactive” and the inhibition [21] was “inactive”. For the same compound, the inhibition [22] was “inactive”.

Work on `CC[C@H](C)[C@@H]1NC(=O)[C@H](CC(=O)O)NC(=O)[C@@H]2CCCN2C(=O)[C@H](CC(N)=O)NC(=O)[C@H](CCC(N)=O)NC(=O)[C@H](CC(C)C)NC(=O)[C@H]([C@@H](C)CC)NC(=O)[C@@H]2CSSC[C@H](NC(=O)C(N)CC(=O)O)C(=O)N[C@@H](CSSC[C@@H](C(N)=O)NC1=O)C(=O)N[C@@H](CO)C(=O)N[C@@H](C)C(=O)N1CCC[C@H]1C(=O)N1CCC[C@H]1C(=O)N2` (stereo not given in full) (H-[ξD]CCSAPPCILQNPDIC-NH2; disulfide 2-8, 3-16) yielded an IC50 [23] of 0.112 µM, an IC50 [24] of over 10 µM and an IC50 [25] of over 10 µM.
